Measured values as given in PubChem BioAssay AID330 (DTP/NCI, 2004).
“And” between values parts separate entries of the source, which are not always exact repeats. Equal entries are not always repeated. Toxic doses and inconclusive results are not listed. Rule for the calls: active = survival T/C of 150% or more; inactive = T/C below 125% in these data.

System: P388 leukemia ip, CD2F1 mice, survival T/C
Test: NCI In Vivo Anticancer Drug Screen. Data for tumor model P388 Leukemia (intraperitoneal) in CD2F1 (CDF1) mice
Settings: endpoint: median survival time, higher = longer survival
How it was run: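 Mice carrying the transplanted tumor received test compound or vehicle. Survival was recorded in each group, and the value is the treated-group measurement divided by that of the vehicle-treated control group.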

[1] = dose: 30.0 mg/kg/injection, schedule: Q01DX005 (ip), vehicle: saline with Tween-80
[2] = dose: 60.0 mg/kg/injection, schedule: Q01DX005 (ip), vehicle: saline with Tween-80
[3] = dose: 120.0 mg/kg/injection, schedule: Q01DX005 (ip), vehicle: saline with Tween-80
[4] = dose: 240.0 mg/kg/injection, schedule: Q01DX005 (ip), vehicle: saline with Tween-80
[5] = dose: 50.0 mg/kg/injection, schedule: Q01DX005 (ip), vehicle: saline
[6] = dose: 100.0 mg/kg/injection, schedule: Q01DX001 (ip), vehicle: saline with Tween-80
[7] = dose: 200.0 mg/kg/injection, schedule: Q01DX001 (ip), vehicle: saline with Tween-80
[8] = dose: 400.0 mg/kg/injection, schedule: Q01DX001 (ip), vehicle: saline with Tween-80
[9] = dose: 50.0 mg/kg/injection, schedule: Q01DX009 (ip), vehicle: saline
[10] = dose: 50.0 mg/kg/injection, schedule: Q01DX005 (ip), vehicle: saline with Tween-80
[11] = dose: 100.0 mg/kg/injection, schedule: Q01DX005 (ip), vehicle: saline with Tween-80
[12] = dose: 50.0 mg/kg/injection, schedule: Q01DX009 (ip), vehicle: saline with Tween-80
[13] = dose: 100.0 mg/kg/injection, schedule: Q01DX009 (ip), vehicle: saline with Tween-80
[14] = dose: 200.0 mg/kg/injection, schedule: Q01DX009 (ip), vehicle: saline with Tween-80
[15] = dose: 6.25 mg/kg/injection, schedule: Q01DX009 (ip), vehicle: Klucel (hydroxypropylcellulose) (HPC)
[16] = dose: 12.5 mg/kg/injection, schedule: Q01DX009 (ip), vehicle: Klucel (hydroxypropylcellulose) (HPC)
[17] = dose: 25.0 mg/kg/injection, schedule: Q01DX009 (ip), vehicle: Klucel (hydroxypropylcellulose) (HPC)
[18] = dose: 50.0 mg/kg/injection, schedule: Q01DX009 (ip), vehicle: Klucel (hydroxypropylcellulose) (HPC)
[19] = dose: 100.0 mg/kg/injection, schedule: Q01DX009 (ip), vehicle: Klucel (hydroxypropylcellulose) (HPC)
[20] = dose: 12.5 mg/kg/injection, schedule: Q01DX009 (ip), vehicle: saline with Tween-80
[21] = dose: 25.0 mg/kg/injection, schedule: Q01DX009 (ip), vehicle: saline with Tween-80
[22] = dose: 200.0 mg/kg/injection, schedule: Q01DX005 (ip), vehicle: saline with Tween-80

Measured: T/C

NC(=O)C1C=CN(Cc2ccccc2)C=C1
inactive: [1] 105 % of control and 106 % of control | [2] 108 % of control and 111 % of control and 123 % of control | [3] 117 % of control and 118 % of control | [4] 108 % of control and 123 % of control

CC(=O)C(C)C(C)=NCCN=C(C)C(C)C(C)=O (stereo unspecified)
inactive: dose: 50.0 mg/kg/injection, schedule: Q01DX005 (ip), vehicle: Klucel (hydroxypropylcellulose) (HPC) 110 % of control | dose: 100.0 mg/kg/injection, schedule: Q01DX005 (ip), vehicle: Klucel (hydroxypropylcellulose) (HPC) 110 % of control | dose: 200.0 mg/kg/injection, schedule: Q01DX005 (ip), vehicle: Klucel (hydroxypropylcellulose) (HPC) 103 % of control

COC(=O)N1N=C(c2ccccc2)C(C(=O)OC)(C(=O)OC)c2ccccc21
inactive: [2] 93 % of control | [3] 87 % of control

NCCCn1[nH]c(=O)c2ccncc2c1=O
inactive: dose: 100.0 mg/kg/injection, schedule: Q04DX002 (ip), vehicle: saline 97 % of control | dose: 200.0 mg/kg/injection, schedule: Q04DX002 (ip), vehicle: saline 97 % of control | dose: 400.0 mg/kg/injection, schedule: Q04DX002 (ip), vehicle: saline 95 % of control

CC(O)CN(CCN(CC(C)O)CC(C)O)CC(C)O (stereo unspecified)
inactive: [5] 105 % of control | dose: 100.0 mg/kg/injection, schedule: Q01DX005 (ip), vehicle: saline 103 % of control | dose: 200.0 mg/kg/injection, schedule: Q01DX005 (ip), vehicle: saline 103 % of control

Cc1nc2ccc(N)cc2oc1=O
inactive: dose: 15.0 mg/kg/injection, schedule: Q01DX005 (ip), vehicle: saline with Tween-80 100 % of control | [1] 101 % of control | [2] 105 % of control and 98 % of control

Cc1c(Br)sc2ccc3ccccc3c12
inactive: [6] 103 % of control | [7] 106 % of control | [8] 103 % of control

CC[N+](C)(CC)C[Si](C)(C)c1ccccc1
inactive: dose: 12.5 mg/kg/injection, schedule: Q01DX005 (ip), vehicle: saline 98 % of control | dose: 25.0 mg/kg/injection, schedule: Q01DX005 (ip), vehicle: saline 100 % of control | [5] 105 % of control and 98 % of control

C=C1SC(=Nc2cccc(OC)c2)N(c2nc(Cl)nc(Cl)n2)C1(C)C
inactive: [9] 99 % of control | dose: 100.0 mg/kg/injection, schedule: Q01DX009 (ip), vehicle: saline 102 % of control | dose: 200.0 mg/kg/injection, schedule: Q01DX009 (ip), vehicle: saline 98 % of control

CC(C)CC(NC(=O)OCc1ccccc1)C(=O)O (stereo unspecified)
inactive: [10] 105 % of control | [11] 101 % of control

CC(=O)N1CCc2cc(N)ccc21
inactive: [12] 95 % of control | [13] 86 % of control | [14] 90 % of control

O=C1C=CC(O)C1(O)CO (stereo unspecified)
inactive: dose: 2.5 mg/kg/injection, schedule: Q01DX009 (ip), vehicle: saline + alcohol 98 % of control | dose: 5.0 mg/kg/injection, schedule: Q01DX009 (ip), vehicle: saline + alcohol 100 % of control | dose: 10.0 mg/kg/injection, schedule: Q01DX009 (ip), vehicle: saline + alcohol 105 % of control | dose: 20.0 mg/kg/injection, schedule: Q01DX009 (ip), vehicle: saline + alcohol 101 % of control

O=C(/C=C/c1cccnc1)/C=C/c1cccnc1
inactive: [15] 122 % of control | [16] 124 % of control | [17] 124 % of control | [18] 120 % of control

NC(N)=NS(=O)(=O)c1ccc(N=Nc2c(O)n(-c3ccccc3)n(-c3ccccc3)c2=O)cc1
inactive: [18] 88 % of control | [19] 94 % of control

N/C(=N/S(=O)(=O)c1cccc([N+](=O)[O-])c1)NS(=O)(=O)c1ccc([N+](=O)[O-])cc1
inactive: dose: 7.5 mg/kg/injection, schedule: Q01DX009 (ip), vehicle: saline with Tween-80 101 % of control | dose: 15.0 mg/kg/injection, schedule: Q01DX009 (ip), vehicle: saline with Tween-80 113 % of control | dose: 30.0 mg/kg/injection, schedule: Q01DX009 (ip), vehicle: saline with Tween-80 110 % of control

Cc1cc(O)c(C(C)C)cc1S(=O)(=O)O (tested in a mixture with another compound)
inactive: dose: 100.0 mg/kg/injection, schedule: Q04DX003 (ip), vehicle: saline with Tween-80 100 % of control | dose: 200.0 mg/kg/injection, schedule: Q04DX003 (ip), vehicle: saline with Tween-80 95 % of control and 108 % of control | dose: 400.0 mg/kg/injection, schedule: Q04DX003 (ip), vehicle: saline with Tween-80 108 % of control

CC(C)(C)C(=N)N
inactive: dose: 12.5 mg/kg/injection, schedule: Q01DX009 (ip), vehicle: saline 100 % of control | dose: 25.0 mg/kg/injection, schedule: Q01DX009 (ip), vehicle: saline 108 % of control | [9] 102 % of control

Cc1cc2c(=O)cc(-c3ccccc3)oc2c(C(N)=O)c1C
inactive: [2] 99 % of control | [3] 98 % of control | [4] 93 % of control

N#CCCN(C(=O)Nc1ccc(Cl)c(Cl)c1)C1CCCCC1
inactive: [20] 98 % of control | [21] 101 % of control and 104 % of control | [12] 100 % of control and 103 % of control | [13] 91 % of control and 97 % of control

O=S1(=O)CC(SC2CS(=O)(=O)C2)C1
inactive: [6] 103 % of control | [7] 101 % of control | [8] 100 % of control

Cc1cccc(C2=NCCN2)c1C
inactive: dose: 5.0 mg/kg/injection, schedule: Q04DX003 (ip), vehicle: saline with Tween-80 100 % of control | dose: 10.0 mg/kg/injection, schedule: Q04DX003 (ip), vehicle: saline with Tween-80 100 % of control | dose: 20.0 mg/kg/injection, schedule: Q04DX003 (ip), vehicle: saline with Tween-80 100 % of control

CC(=O)OC1CC2CCCCC2CC1[N+](C)(C)C (stereo unspecified)
inactive: [20] 108 % of control | [21] 112 % of control | [12] 103 % of control and 94 % of control | [9] 105 % of control

C=CCN1C(=O)CCN(S(=O)(=O)c2ccc(-n3nc(C(=O)O)cc3C)cc2)C1=S
inactive: [10] 103 % of control | [11] 107 % of control | [22] 99 % of control

Nc1cc2cccc[n+]2c2ccccc12
inactive: dose: 3.75 mg/kg/injection, schedule: Q01DX005 (ip), vehicle: saline 110 % of control | dose: 7.5 mg/kg/injection, schedule: Q01DX005 (ip), vehicle: saline 106 % of control | dose: 15.0 mg/kg/injection, schedule: Q01DX005 (ip), vehicle: saline 120 % of control

Oc1ccc2ccccc2c1/C=N/N=c1\[nH][nH]/c(=N\N=C\c2c(O)ccc3ccccc23)c2ccccc12
inactive: [10] 98 % of control | [11] 97 % of control | [22] 99 % of control

CC1=C(C)C(=O)O[C@@H]([C@](C)(O)[C@]2(O)CC[C@@]3(O)[C@@H]4C[C@H](O)[C@]5(O)[C@@H](O)C=CC(=O)[C@]5(C)[C@H]4CC[C@]23C)C1
inactive: dose: 4.0 mg/kg/injection, schedule: Q01DX005 (ip), vehicle: distilled water + Tween-80 100 % of control | dose: 8.0 mg/kg/injection, schedule: Q01DX005 (ip), vehicle: distilled water + Tween-80 102 % of control | dose: 16.0 mg/kg/injection, schedule: Q01DX005 (ip), vehicle: distilled water + Tween-80 107 % of control | dose: 32.0 mg/kg/injection, schedule: Q01DX005 (ip), vehicle: distilled water + Tween-80 106 % of control and 112 % of control | dose: 64.0 mg/kg/injection, schedule: Q01DX005 (ip), vehicle: distilled water + Tween-80 99 % of control and 107 % of control | dose: 128.0 mg/kg/injection, schedule: Q01DX005 (ip), vehicle: distilled water + Tween-80 99 % of control

O=[N+]([O-])c1ccc(N/N=C/c2ccc(Cl)cc2)nc1
inactive: [15] 87 % of control | [16] 89 % of control | [17] 91 % of control | [18] 91 % of control | [19] 98 % of control | dose: 200.0 mg/kg/injection, schedule: Q01DX009 (ip), vehicle: Klucel (hydroxypropylcellulose) (HPC) 105 % of control and 89 % of control | [14] 91 % of control and 93 % of control | dose: 400.0 mg/kg/injection, schedule: Q01DX009 (ip), vehicle: saline with Tween-80 112 % of control
